# Structures can show the parent of a compound that is named as a salt.
# Tested on: brain disorders of patients from drug detoxification
# Assay: Biperiden Hcl given to patients after block-out of poisoning pathway (drug detoxification) treatment
# Format: in vivo
# Settings: dose 10 mg/ml
# Procedure: A Biperiden Hcl 10 medicine of the disclosure is a cure of Parkinson's disease and can reduce effect of acetylcholine of Extrapyramidal Symptoms (EPS) on it to further decrease excitement of central nervous. […] With reference to FIG. 1, a Biperiden Hcl 10 medicine is applied after patients are treated with block-out of poisoning pathway, wherein poisoning pathway treatment 20 can adapt intravenous drip prescription 30 disclosed in U.S. utility patent application Ser. No.10/004,781 owned by the inventor(s) and purpose treatment thereof, providing the intravenous drip prescription 30 to patients. The intravenous drip prescription 30 comprises a plurality of ingredients consisting of Cerebrolysin, Piracetam, Cimetidine, Scopolamine Butylbromide, Nefopam, B. C Complex, Vitamin B1, Ascorbic acid, Ketorolac, Guronsan, Hyoscien Butylbromide, and Sukerin. After a patient is dealt with poisoning pathway treatment 20, a dose (10 mg/ml) of Biperiden Hcl 10 is provided to the patient to sooth brain disorder of the patient from the poisoning pathway treatment 20 of the patient, capable of rapidly recovering consciousness and normal physiological state.
structure (smiles),measurement,value
OC(CCN1CCCCC1)(c1ccccc1)C1CC2C=CC1C2 (stereo not shown) [Biperiden Hcl],soothing brain disorders of patients and recovering consciousness and normal physiological state,excellent effect of soothing brain disorders of patients and recovering consciousness and normal physiological state
